The source of these data is patent publication US4923861A, “6-(2-(2-(Substituted amino)-3-quinolinyl) ethenyl and ethyl) tetrahydro-4-hydroxypyran-2-one inhibitors of cholesterol biosynthesis” (Warner-Lambert Company, priority 1989, dated 1990).

pIC50: −log10 of the molar value. Where a name gives a salt, the structure may show the parent alone.

Assay [1] has as its system cholesterol synthesis (plasma [14C]cholesterol). Put plainly: AICS (Acute Inhibition of Cholesterol Synthesis) screen. The assay is classed as in vivo, male Sprague-Dawley rats. The settings on record: cholestyramine-fed male rats, single oral gavage dose (dose not given), [1-14C]acetate i.p. one hour after dosing, blood after 50 minutes. As for the experimental part:
Additionally, the ability of compounds of the present invention to inhibit the biosynthesis of cholesterol was also measured by a method (designated AICS (Acute Inhibition of Cholesterol Synthesis) screen) which utilizes the procedure described by A. W. Alberts, et al, Proceedings of the National Academy of Sciences, Volume 77, pages 3957-3961 (1980).
In this method male Sprague-Dawley rats (200 g body weight) previously fed 5% cholestyramine for three days were randomly divided into groups (N=5/group) and given a single dose of vehicle (controls) or compound by an oral gavage at the indicated doses. One hour after drug dosing, all rats were injected intraperitoneally with sodium[1-^14 C]acetate (18.75 μCi/rat in 0.2 ml saline). After 50 minutes, blood samples were taken, plasma obtained by centrifugation, and plasma [^14 C]cholesterol measured after saponification and extraction.

Assay [2] has as its system sterol synthesis (rat liver homogenate). Put plainly: CSI (Cholesterol Synthesis Inhibition) screen. The assay is classed as biochemical. The settings on record: 14C-acetate incorporation into nonsaponifiable lipid, one-hour period. The procedure: The ability of compounds of the present invention to inhibit the biosynthesis of cholesterol was measured by a method (designated CSI (Cholesterol Synthesis Inhibition) screen) which utilizes the procedure described by R. E. Dugan et al, Archives of Biochemistry and Biophysics, Volume 152, pages 21-27 (1972). In this method, the level of HMG-CoA enzyme activity in standard laboratory rats is increased by feeding the rats a chow diet containing 5% cholestyramine for four days, after which the rats are sacrificed.
The rat livers are homogenized, and the incorporation of ^14 C-acetate into nonsaponifiable lipid by the rat liver homogenate is measured. The micromolar concentration of compound required for 50% inhibition of sterol synthesis over a one-hour period is measured, and expressed as an IC50 value.

As for `CN(C)c1nc2ccccc2c(-c2ccc(F)cc2)c1/C=C/[C@@H]1C[C@@H](O)CC(=O)O1` (relative stereo) [1 (lactone), [4α,6β(E)]-6-[2-[2-(Dimethylamino)-4-(4-fluorophenyl)-3-quinolinyl]ethenyl]tetrahydro-4-hydroxy-2H-pyran-2-one], the “AICS % Inhibition” value in assay [1] came out at 52%. Turning to `CN(C)c1nc2ccccc2c(-c2ccc(F)cc2)c1/C=C/[C@@H](O)C[C@@H](O)CC(=O)O` (relative stereo) [[R*,S*-(E)]-7-[2-dimethylamino)-4-(4-fluorophenyl)-3-quinolinyl]-3,5-dihydroxy-6-heptenoic acid, monosodium salt], the “AICS % Inhibition” value in assay [1] amounted to 49%. In addition, in assay [2], the pIC50 was 7.33.
